ChEMBL document CHEMBL4732047, “New imidazopyridines with phosphodiesterase 4 and 7 inhibitory activity and their efficacy in animal models of inflammatory and autoimmune diseases” (Eur J Med Chem, 2021)
Each block holds one compound with its values, some of them ahead of it. Activity calls are given as the source filed them. The calls are words filed in the database; no cut-off is given here.

How the values were obtained:
[1] = biological target: High affinity 3',5'-cyclic-AMP phosphodiesterase 7A (Homo sapiens, UniProt Q13946); assay: Inhibition of human recombinant PDE7A using cAMP as substrate incubated for 20 mins measured by Kinase Glo reagent based microplate reader assay
Chain of High affinity 3',5'-cyclic-AMP phosphodiesterase 7A (Q13946 whole entry): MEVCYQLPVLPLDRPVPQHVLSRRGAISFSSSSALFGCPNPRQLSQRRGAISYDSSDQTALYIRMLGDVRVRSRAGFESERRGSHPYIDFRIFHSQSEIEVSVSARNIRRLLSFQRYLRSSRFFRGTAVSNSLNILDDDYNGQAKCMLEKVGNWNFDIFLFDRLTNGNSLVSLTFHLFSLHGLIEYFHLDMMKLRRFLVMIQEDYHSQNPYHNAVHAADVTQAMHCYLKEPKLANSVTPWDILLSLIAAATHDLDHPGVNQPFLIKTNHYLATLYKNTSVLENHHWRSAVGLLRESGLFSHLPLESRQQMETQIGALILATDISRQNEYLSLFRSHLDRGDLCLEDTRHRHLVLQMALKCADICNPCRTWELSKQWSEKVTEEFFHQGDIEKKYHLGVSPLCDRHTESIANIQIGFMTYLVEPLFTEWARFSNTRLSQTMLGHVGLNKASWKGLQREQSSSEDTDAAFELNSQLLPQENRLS

[2] = biological target: 3',5'-cyclic-AMP phosphodiesterase 4B (Homo sapiens, UniProt Q07343); assay: Inhibition of human recombinant PDE4B using cAMP as substrate incubated for 20 mins measured by Kinase Glo reagent based microplate reader assay
Chain of 3',5'-cyclic-AMP phosphodiesterase 4B (Q07343 whole entry): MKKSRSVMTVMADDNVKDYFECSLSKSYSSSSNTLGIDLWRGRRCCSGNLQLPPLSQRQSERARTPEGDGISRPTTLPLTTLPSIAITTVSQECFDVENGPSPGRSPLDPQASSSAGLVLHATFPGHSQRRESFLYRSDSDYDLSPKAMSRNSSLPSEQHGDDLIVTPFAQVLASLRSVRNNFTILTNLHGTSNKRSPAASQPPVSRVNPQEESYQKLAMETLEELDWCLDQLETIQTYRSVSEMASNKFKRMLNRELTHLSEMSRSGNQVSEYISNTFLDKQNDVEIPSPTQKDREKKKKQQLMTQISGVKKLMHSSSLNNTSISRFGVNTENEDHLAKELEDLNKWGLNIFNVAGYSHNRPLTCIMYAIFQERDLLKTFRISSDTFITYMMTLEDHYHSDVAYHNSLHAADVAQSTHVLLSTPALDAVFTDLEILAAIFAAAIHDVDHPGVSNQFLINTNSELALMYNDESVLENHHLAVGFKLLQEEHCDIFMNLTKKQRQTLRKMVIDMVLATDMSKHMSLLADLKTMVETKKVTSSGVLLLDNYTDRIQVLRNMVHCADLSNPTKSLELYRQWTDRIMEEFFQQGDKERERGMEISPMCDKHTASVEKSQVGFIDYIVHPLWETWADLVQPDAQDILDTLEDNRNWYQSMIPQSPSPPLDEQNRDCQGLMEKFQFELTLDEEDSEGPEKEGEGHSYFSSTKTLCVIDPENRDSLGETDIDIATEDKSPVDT

Mus musculus [3] = assay: Hepatoprotective activity in ConA-induced BALB/c hepatitis mouse model assessed as decrease in serum IL-6 level at 50 mg/kg, ip administration and measured after 8 hrs relative to control; assay type: functional, organism-based
[4] = biological target: 3',5'-cyclic-AMP phosphodiesterase 4D (Homo sapiens, UniProt Q08499); assay: Inhibition of human recombinant PDE4D using cAMP as substrate incubated for 20 mins measured by Kinase Glo reagent based microplate reader assay
Chain of 3',5'-cyclic-AMP phosphodiesterase 4D (Q08499 whole entry): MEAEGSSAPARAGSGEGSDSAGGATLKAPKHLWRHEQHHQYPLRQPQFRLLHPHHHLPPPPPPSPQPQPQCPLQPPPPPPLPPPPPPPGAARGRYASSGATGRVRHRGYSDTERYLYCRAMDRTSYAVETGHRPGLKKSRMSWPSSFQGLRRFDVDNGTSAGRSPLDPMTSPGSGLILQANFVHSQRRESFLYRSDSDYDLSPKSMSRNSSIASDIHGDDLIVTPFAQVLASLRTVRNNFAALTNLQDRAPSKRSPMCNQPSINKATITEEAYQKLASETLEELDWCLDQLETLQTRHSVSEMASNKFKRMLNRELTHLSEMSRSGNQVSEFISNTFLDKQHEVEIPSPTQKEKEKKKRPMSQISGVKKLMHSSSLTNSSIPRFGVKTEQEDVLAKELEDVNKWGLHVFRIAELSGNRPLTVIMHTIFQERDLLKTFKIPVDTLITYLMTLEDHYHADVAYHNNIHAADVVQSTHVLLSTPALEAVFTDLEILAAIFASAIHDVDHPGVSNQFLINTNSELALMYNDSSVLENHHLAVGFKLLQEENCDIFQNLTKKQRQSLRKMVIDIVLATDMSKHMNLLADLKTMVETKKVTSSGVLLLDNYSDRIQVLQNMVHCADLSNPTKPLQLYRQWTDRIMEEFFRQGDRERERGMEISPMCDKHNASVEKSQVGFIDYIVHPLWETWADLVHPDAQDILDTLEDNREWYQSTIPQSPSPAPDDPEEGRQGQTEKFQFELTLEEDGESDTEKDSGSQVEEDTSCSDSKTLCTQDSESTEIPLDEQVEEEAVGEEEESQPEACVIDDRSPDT

[5] = biological target: cGMP-inhibited 3',5'-cyclic phosphodiesterase 3A (Homo sapiens, UniProt Q14432); assay: Inhibition of human recombinant PDE3A using cAMP as substrate incubated for 20 mins measured by Kinase Glo reagent based microplate reader assay
[6] = biological target: Dual specificity calcium/calmodulin-dependent 3',5'-cyclic nucleotide phosphodiesterase 1B (Homo sapiens, UniProt Q01064); assay: Inhibition of human recombinant PDE1B using cAMP as substrate incubated for 20 mins measured by Kinase Glo reagent based microplate reader assay
Chain of Dual specificity calcium/calmodulin-dependent 3',5'-cyclic nucleotide phosphodiesterase 1B (Q01064 whole entry): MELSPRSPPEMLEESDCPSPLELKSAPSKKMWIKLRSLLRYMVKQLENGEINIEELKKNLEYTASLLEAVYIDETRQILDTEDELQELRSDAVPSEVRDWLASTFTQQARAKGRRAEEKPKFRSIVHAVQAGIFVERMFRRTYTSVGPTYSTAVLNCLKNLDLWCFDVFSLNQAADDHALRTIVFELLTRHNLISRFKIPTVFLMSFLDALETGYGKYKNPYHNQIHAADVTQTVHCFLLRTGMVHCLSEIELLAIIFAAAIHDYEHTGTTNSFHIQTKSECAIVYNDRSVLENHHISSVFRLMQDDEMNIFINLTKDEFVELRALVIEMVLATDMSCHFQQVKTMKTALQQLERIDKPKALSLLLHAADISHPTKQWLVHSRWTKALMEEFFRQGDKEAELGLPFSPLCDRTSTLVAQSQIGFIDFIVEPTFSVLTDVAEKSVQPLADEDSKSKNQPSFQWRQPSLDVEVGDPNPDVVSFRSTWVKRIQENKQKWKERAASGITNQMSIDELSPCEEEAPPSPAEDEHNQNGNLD

[7] = biological target: cGMP-specific 3',5'-cyclic phosphodiesterase (Homo sapiens, UniProt O76074); assay: Inhibition of human recombinant PDE5A using cGMP as substrate incubated for 20 mins measured by Kinase Glo reagent based microplate reader assay
[8] = biological target: cGMP-dependent 3',5'-cyclic phosphodiesterase (Homo sapiens, UniProt O00408); assay: Inhibition of human recombinant PDE2A using cGMP as substrate incubated for 20 mins measured by Kinase Glo reagent based microplate reader assay
Chain of cGMP-dependent 3',5'-cyclic phosphodiesterase (O00408 whole entry): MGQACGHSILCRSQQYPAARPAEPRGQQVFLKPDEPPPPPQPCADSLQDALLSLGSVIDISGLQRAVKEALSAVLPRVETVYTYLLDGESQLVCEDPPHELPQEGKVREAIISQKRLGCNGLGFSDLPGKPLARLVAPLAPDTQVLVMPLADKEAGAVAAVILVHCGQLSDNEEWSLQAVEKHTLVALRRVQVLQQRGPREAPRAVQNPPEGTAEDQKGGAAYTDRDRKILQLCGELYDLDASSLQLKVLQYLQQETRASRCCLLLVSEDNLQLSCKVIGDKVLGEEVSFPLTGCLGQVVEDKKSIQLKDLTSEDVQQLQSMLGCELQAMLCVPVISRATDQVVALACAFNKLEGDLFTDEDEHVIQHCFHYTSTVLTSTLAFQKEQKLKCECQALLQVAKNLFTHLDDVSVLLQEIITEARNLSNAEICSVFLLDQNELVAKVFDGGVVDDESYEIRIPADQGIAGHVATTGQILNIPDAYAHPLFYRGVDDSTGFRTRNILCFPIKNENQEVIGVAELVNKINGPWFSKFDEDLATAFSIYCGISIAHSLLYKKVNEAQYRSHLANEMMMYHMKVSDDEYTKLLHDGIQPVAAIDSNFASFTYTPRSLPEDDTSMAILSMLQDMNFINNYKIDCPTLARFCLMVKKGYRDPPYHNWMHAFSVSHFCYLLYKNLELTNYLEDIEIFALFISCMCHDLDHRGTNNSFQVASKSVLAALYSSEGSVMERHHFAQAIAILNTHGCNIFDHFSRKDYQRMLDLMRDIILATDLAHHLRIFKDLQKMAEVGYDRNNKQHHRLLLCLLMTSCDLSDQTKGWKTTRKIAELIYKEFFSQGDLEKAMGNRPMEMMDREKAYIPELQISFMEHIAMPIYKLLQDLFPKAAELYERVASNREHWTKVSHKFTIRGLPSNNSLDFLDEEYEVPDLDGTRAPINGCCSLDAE

[9] = biological target: cAMP and cAMP-inhibited cGMP 3',5'-cyclic phosphodiesterase 10A (Homo sapiens, UniProt Q9Y233); assay: Inhibition of human recombinant PDE10A using cAMP as substrate incubated for 20 mins measured by Kinase Glo reagent based microplate reader assay
Chain of cAMP and cAMP-inhibited cGMP 3',5'-cyclic phosphodiesterase 10A (Q9Y233 whole entry): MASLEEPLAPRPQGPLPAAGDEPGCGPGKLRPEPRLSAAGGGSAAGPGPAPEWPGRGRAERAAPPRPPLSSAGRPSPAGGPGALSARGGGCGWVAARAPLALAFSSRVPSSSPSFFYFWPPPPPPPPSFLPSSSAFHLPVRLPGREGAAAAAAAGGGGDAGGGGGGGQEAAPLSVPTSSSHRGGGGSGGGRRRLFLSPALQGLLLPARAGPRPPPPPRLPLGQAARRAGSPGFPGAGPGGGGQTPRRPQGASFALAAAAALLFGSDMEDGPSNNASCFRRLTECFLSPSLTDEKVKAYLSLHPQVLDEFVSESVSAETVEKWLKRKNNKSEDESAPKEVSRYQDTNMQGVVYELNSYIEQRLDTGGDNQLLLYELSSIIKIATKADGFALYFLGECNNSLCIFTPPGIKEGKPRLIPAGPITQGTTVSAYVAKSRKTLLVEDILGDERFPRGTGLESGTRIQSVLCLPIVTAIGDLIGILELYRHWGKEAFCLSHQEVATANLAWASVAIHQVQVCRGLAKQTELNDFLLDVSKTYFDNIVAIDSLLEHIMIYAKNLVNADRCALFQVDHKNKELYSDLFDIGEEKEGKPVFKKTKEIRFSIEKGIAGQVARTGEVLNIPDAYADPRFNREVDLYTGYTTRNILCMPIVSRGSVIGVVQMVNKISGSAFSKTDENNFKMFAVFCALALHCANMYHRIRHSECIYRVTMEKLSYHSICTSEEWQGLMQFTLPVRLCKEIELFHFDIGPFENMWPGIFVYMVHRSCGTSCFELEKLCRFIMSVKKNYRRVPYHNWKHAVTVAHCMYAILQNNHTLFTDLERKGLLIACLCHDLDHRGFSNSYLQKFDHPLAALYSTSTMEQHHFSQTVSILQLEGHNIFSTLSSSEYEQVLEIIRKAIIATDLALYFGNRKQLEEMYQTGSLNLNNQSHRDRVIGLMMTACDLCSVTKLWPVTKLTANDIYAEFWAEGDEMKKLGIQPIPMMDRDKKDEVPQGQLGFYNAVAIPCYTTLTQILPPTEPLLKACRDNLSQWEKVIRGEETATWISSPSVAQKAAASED

Mus musculus [10] = assay: Hepatoprotective activity in ConA-induced BALB/c hepatitis mouse model assessed as decrease in serum IL-6 level at 10 mg/kg, ip administration and measured after 8 hrs relative to control; assay type: functional, organism-based
Rattus norvegicus [11] = assay: Antiinflammatory activity in LPS-induced Wistar rat endotoxemia model assessed as decrease in plasma TNFalpha level at 20 mg/kg, ip measured after 1.5 hr; assay type: functional; design: scale not given: the % may be the effect or the level left
[12] = AUC in female Lewis rat at 10 mg/kg, iv; assay type: ADME, organism-based; design: dose 10 mg/kg; conditions: in vivo
[13] = Tmax in female Lewis rat at 10 mg/kg, iv; assay type: ADME, organism-based; conditions: in vivo
[14] = Brain to serum concentration ratio in C57BL/6 mouse at 50 mg/kg, ip measured after 15 mins; assay type: ADME, organism-based
[15] = Elimination half life in Wistar rat; assay type: ADME; conditions: in vivo, read-out: beta t1/2
Mus musculus [16] = assay: Immunosuppressive activity in MOG (35 to 55 residues) toxin-induced experimental autoimmune encephalomyelitis C57BL/6 mouse model assessed as reduction in white matter vacuolation in cerebellum at 50 mg/kg, ip relative to untreated control; assay type: functional, organism-based
Mus musculus [17] = assay: Hepatoprotective activity in ConA-induced BALB/c hepatitis mouse model assessed as decrease in serum alanine aminotransferase level at 50 mg/kg, ip administration and measured after 8 hrs relative to control; assay type: functional, organism-based
Mus musculus [18] = assay: Immunosuppressive activity in MOG (35 to 55 residues) toxin-induced experimental autoimmune encephalomyelitis C57BL/6 mouse model assessed decrease in polymorphonuclear leukocytes infiltration into spinal cored at 50 mg/kg, ip relative to untreated control; assay type: functional, organism-based
Mus musculus [19] = assay: Hepatoprotective activity in ConA-induced BALB/c hepatitis mouse model assessed as decrease in serum IFNgamma level at 10 mg/kg, ip administration and measured after 8 hrs relative to control; assay type: functional, organism-based
[20] = Apparent volume of distribution during terminal phase in female Lewis rat at 10 mg/kg, iv; assay type: ADME, organism-based; conditions: in vivo
[21] = Drug uptake in C57BL/6 mouse brain at 50 mg/kg, ip measured up to 60 mins; assay type: ADME, organism-based; conditions: read-out: Drug uptake
Mus musculus [22] = assay: Immunosuppressive activity in MOG (35 to 55 residues) toxin-induced experimental autoimmune encephalomyelitis C57BL/6 mouse model assessed reduction in disease onset at 50 mg/kg, ip; assay type: functional, organism-based
[23] = AUC in male Wistar rat at 10 mg/kg, ip; assay type: ADME, organism-based; design: dose 10 mg/kg; conditions: in vivo
[24] = Brain to serum concentration ratio in C57BL/6 mouse at 50 mg/kg, ip measured after 60 mins; assay type: ADME, organism-based
Mus musculus [25] = assay: Immunosuppressive activity in MOG (35 to 55 residues) toxin-induced experimental autoimmune encephalomyelitis female C57BL/6 mouse model assessed as reduction in clinical scores at 50 mg/kg, ip administered […] once daily starting from day 1 post immunization and measured 15 days; assay type: functional, organism-based; conditions: time 15.0 day
Mus musculus [26] = assay: Hepatoprotective activity in ConA-induced BALB/c hepatitis mouse model assessed as decrease in serum alanine aminotransferase level at 10 mg/kg, ip administration and measured after 8 hrs relative to control; assay type: functional, organism-based
Mus musculus [27] = assay: Immunosuppressive activity in MOG (35 to 55 residues) toxin-induced experimental autoimmune encephalomyelitis C57BL/6 mouse model assessed decrease in macrophages infiltration into spinal cored at 50 mg/kg, ip relative to untreated control; assay type: functional, organism-based
[28] = Elimination half life in female Lewis rat at 10 mg/kg, iv; assay type: ADME, organism-based; conditions: in vivo, read-out: beta t1/2
[29] = Selectivity index, ratio of IC50 for inhibition of human recombinant PDE4D to IC50 for inhibition of human recombinant PDE4B
[30] = Selectivity index, ratio of IC50 for inhibition of human recombinant PDE3A to IC50 for inhibition of human recombinant PDE4B
[31] = Apparent volume of distribution during terminal phase in male Wistar rat at 10 mg/kg, ip; assay type: ADME, organism-based; conditions: in vivo, read-out: Vz/F
[32] = Tmax in male Wistar rat at 10 mg/kg, ip; assay type: ADME, organism-based; conditions: in vivo
[33] = Brain to serum concentration ratio in C57BL/6 mouse at 50 mg/kg, ip measured after 5 mins; assay type: ADME, organism-based
Mus musculus [34] = assay: Hepatoprotective activity in ConA-induced BALB/c hepatitis mouse model assessed as decrease in serum IFNgamma level at 50 mg/kg, ip administration and measured after 8 hrs relative to control; assay type: functional, organism-based
[35] = Clearance in male Wistar rat at 10 mg/kg, ip; assay type: ADME, organism-based; conditions: in vivo
Rattus norvegicus [36] = assay: Antiinflammatory activity in collagen-induced arthritis Lewis rat model assessed as decrease in paw swelling at 20 mg/kg, ip once daily administered on day 20 after collagen treatment and treated until day 40 by macroscopic observation analysis; assay type: functional, organism-based
[37] = Elimination half life in male Wistar rat at 10 mg/kg, ip; assay type: ADME, organism-based; conditions: in vivo, read-out: beta t1/2
[38] = Clearance in female Lewis rat at 10 mg/kg, iv; assay type: ADME, organism-based; conditions: in vivo
Mus musculus [39] = assay: Hepatoprotective activity in ConA-induced BALB/c hepatitis mouse model assessed as decrease in serum aspartate aminotransferase level at 10 mg/kg, ip administration and measured after 8 hrs relative to control; assay type: functional, organism-based
[40] = Cmax in female Lewis rat at 10 mg/kg, iv; assay type: ADME, organism-based; design: route intravenous, dose 10 mg/kg; conditions: in vivo
Mus musculus [41] = assay: Hepatoprotective activity in ConA-induced BALB/c hepatitis mouse model assessed as decrease in serum aspartate aminotransferase level at 50 mg/kg, ip administration and measured after 8 hrs relative to control; assay type: functional, organism-based
Rattus norvegicus [42] = assay: Antiinflammatory activity in LPS-induced Wistar rat endotoxemia model assessed as decrease in plasma TNFalpha level at 20 mg/kg, ip measured after 1 hr; assay type: functional; design: scale not given: the % may be the effect or the level left
[43] = Cmax in male Wistar rat at 10 mg/kg, ip; assay type: ADME, organism-based; design: route intraperitoneal, dose 10 mg/kg; conditions: in vivo
Rattus norvegicus [44] = assay: Antiinflammatory activity in LPS-induced Wistar rat endotoxemia model assessed as decrease in plasma TNFalpha level at 20 mg/kg, ip measured after 2 hr; assay type: functional; design: scale not given: the % may be the effect or the level left

IC50 [1]: 119 µM
IC50 [2]: 5.41 µM
Compound: COCCNc1ccnc2c1nc(-c1ccco1)n2C1CCCC1

IC50 [1]: 83.3 µM
IC50 [2]: 12.6 µM
Compound: CCCCCn1c(-c2ccco2)nc2c(NCCCOC)nccc21

IC50 [1]: > 200 µM
IC50 [2]: 8.66 µM
Compound: CCCCCn1c(-c2ccco2)nc2c(NCc3ccccc3)ccnc21

IC50 [1]: 18.8 µM
IC50 [2]: 18 µM
Compound: CCCCCn1c(-c2ccco2)nc2c(N(C)CCCO)ccnc21

IC50 [1]: 63.6 µM
IC50 [2]: 49.7 µM
Compound: CCCCCn1c(-c2ccco2)nc2c(NCCCO)ccnc21

IC50 [2]: 0.042 µM
Compound: CNc1nc(C(F)(F)F)nc2c1ncn2Cc1ccccc1F

IC50 [1]: > 200 µM
IC50 [2]: 29 µM
Compound: CCCCCn1c(-c2ccccc2)nc2c(N)ccnc21

IC50 [1]: 7.24 µM
IC50 [4]: 25.8 µM
IC50 [5]: 9.92 µM
IC50 [6]: 2.3 µM
IC50 [7]: 2.91 µM
IC50 [2]: 3.48 µM
IC50 [8]: 21.8 µM
IC50 [9]: 2.95 µM
Compound: CCCCCn1c(-c2ccco2)nc2c(N(C)CCCO)nccc21
Activity (Mus musculus [3]): inactive

Compound: OCCCNc1ccnc2c1nc(-c1ccco1)n2C1CCCC1
Activity (Mus musculus [10]): Active
Activity (Rattus norvegicus [11]): 51%
AUC [12]: 2530 ng·h/mL
Tmax [13]: 0 h
Kp at […] [14]: 5.87
half-life [15]: 30 min
IC50 [1]: 88 µM
Activity (Mus musculus [16]): Active
Activity (Mus musculus [17]): Active
Activity (Mus musculus [3]): Active
Activity (Mus musculus [18]): Active
Activity (Mus musculus [19]): Active
IC50 [4]: 35.6 µM
Vz/F [20]: 1.85 L/kg
concentration at 1 h [21]: ≥ 830 ng/mL
Activity (Mus musculus [22]): Active
AUC [23]: 1230 ng·h/mL
Kp at 1 h [24]: 4.34
IC50 [5]: 47.3 µM
Activity (Mus musculus [25]): Active
IC50 [6]: 8.45 µM
Activity (Mus musculus [26]): Active
Activity (Mus musculus [27]): Active
half-life [28]: 19.5 min
Ratio IC50 [29]: > 10
IC50 [7]: 2.71 µM
IC50 [2]: 2.53 µM
Ratio IC50 [30]: > 10
Vd/F [31]: 3.92 L/kg
Tmax [32]: 15 min
IC50 [8]: 40.7 µM
Kp at 5 min [33]: 2.96
Activity (Mus musculus [34]): Active
CL/F [35]: 140 mL/min/kg
Activity (Rattus norvegicus [36]): Active
half-life [37]: 20.1 min
clearance [38]: 70 mL/min/kg
Activity (Mus musculus [39]): Active
Cmax [40]: 10600 ng/mL
Activity (Mus musculus [41]): Active
Activity (Rattus norvegicus [42]): 49%
Cmax [43]: 1940 ng/mL
IC50 [9]: 5.75 µM
Activity (Rattus norvegicus [44]): 44%

Compound: Nc1ccnc2c1nc(-c1ccccc1)n2CCN1CCCCC1
IC50 [1]: > 200 µM
IC50 [2]: 103 µM

IC50 [1]: > 200 µM
IC50 [2]: 7.09 µM
Compound: CCCCCn1c(-c2ccccc2)nc2c(NCCc3cccs3)ccnc21

IC50 [1]: 2.32 µM
Compound: Cc1ccc([N+](=O)[O-])cc1S(=O)(=O)N(C)C

IC50 [6]: 7.99 µM
Compound: CCOC(=O)C1=C[C@]2(CC)CCCN3CCc4c(n1c1ccccc41)[C@@H]32 [VINPOCETINE]

IC50 [1]: > 200 µM
IC50 [2]: 23.2 µM
Compound: CCCCCn1c(-c2ccccc2)nc2c(NCCCO)ccnc21

IC50 [1]: > 200 µM
IC50 [2]: 60 µM
Compound: CCCCCn1c(-c2ccccc2)nc2c(NCCCO)nccc21

IC50 [1]: > 200 µM
IC50 [2]: 9.77 µM
Compound: CCCCCn1c(-c2ccco2)nc2c(NCCOC)ccnc21

IC50 [1]: 34.2 µM
IC50 [4]: 27.2 µM
IC50 [5]: 40.6 µM
IC50 [6]: 0.36 µM
Ratio IC50 [29]: 10
IC50 [7]: 53.5 µM
IC50 [2]: 3.53 µM
Ratio IC50 [30]: > 10
IC50 [8]: 6.85 µM
IC50 [9]: 9.97 µM
Compound: CCCCCn1c(-c2ccco2)nc2c(NCCCOC)ccnc21
